Laboratory results reported in ChEMBL document CHEMBL4020758, “Anti-atherosclerotic activities of flavonoids from the flowers of Helichrysum arenarium L. MOENCH through the pathway of anti-inflammation” (Bioorg Med Chem Lett, 2017).
Calls of active or inactive are those of the source. No cut-off for these calls is given here.

Tests used:
[1] = tested on: A7R5; assay: Antiproliferative activity against rat A7r5 cells at 50 uM after 24 hrs by MTT assay; format: functional, cell-based
[2] = tested on: A7R5; assay: Antiproliferative activity against rat A7r5 cells at 100 uM after 24 hrs by MTT assay; format: functional, cell-based
[3] = tested on: RAW264.7; assay: Anti-inflammatory activity in mouse RAW264.7 cells assessed as inhibition of LPS/IFN-induced NO production at 10 to 20 uM measured 48 hrs post LPS/IFN challenge by Griess assay; format: functional, cell-based
[4] = tested on: Thoracic aorta; assay: Anti-atherosclerosis activity in Sprague-Dawley rat thoracic aortic vascular ring endothelial injury model assessed as decrease in p38 level at 25 to 50 uM by ELISA; format: functional, tissue-based
[5] = tested on: Thoracic aorta; assay: Anti-atherosclerosis activity in Sprague-Dawley rat thoracic aortic vascular ring endothelial injury model assessed as reduction in vascular endothelial proliferation after 13 days by hematoxylin and eosin staining based assay; format: functional, tissue-based
[6] = tested on: Thoracic aorta; assay: Anti-atherosclerosis activity in Sprague-Dawley rat thoracic aortic vascular ring endothelial injury model assessed as decrease in CRP level at 50 uM by ELISA; format: functional, tissue-based
[7] = tested on: Thoracic aorta; assay: Anti-atherosclerosis activity in Sprague-Dawley rat thoracic aortic vascular ring endothelial injury model assessed as decrease in JNK2 level at 50 uM by ELISA; format: functional, tissue-based
[8] = tested on: Thoracic aorta; assay: Anti-atherosclerosis activity in Sprague-Dawley rat thoracic aortic vascular ring endothelial injury model assessed as decrease in VEGF level at 50 uM by ELISA; format: functional, tissue-based
[9] = tested on: Thoracic aorta; assay: Anti-atherosclerosis activity in Sprague-Dawley rat thoracic aortic vascular ring endothelial injury model assessed as decrease in CRP level at 25 uM by ELISA; format: functional, tissue-based
[10] = tested on: Thoracic aorta; assay: Anti-atherosclerosis activity in Sprague-Dawley rat thoracic aortic vascular ring endothelial injury model assessed as appearance of smooth vascular endothelial surface after 13 days by hematoxylin and eosin staining based assay; format: functional, tissue-based
[11] = tested on: A7R5; assay: Antiproliferative activity against rat A7r5 cells at 10 uM after 24 hrs by MTT assay; format: functional, cell-based
[12] = tested on: Thoracic aorta; assay: Anti-atherosclerosis activity in Sprague-Dawley rat thoracic aortic vascular ring assessed as restoration of injured vessel after 13 days by hematoxylin and eosin staining based assay; format: functional, tissue-based
[13] = tested on: Thoracic aorta; assay: Anti-atherosclerosis activity in Sprague-Dawley rat thoracic aortic vascular ring endothelial injury model assessed as decrease in VEGF level at 25 uM by ELISA; format: functional, tissue-based
[14] = tested on: Thoracic aorta; assay: Anti-atherosclerosis activity in Sprague-Dawley rat thoracic aortic vascular ring endothelial injury model assessed as decrease in JNK2 level at 25 uM by ELISA; format: functional, tissue-based
[15] = tested on: Thoracic aorta; assay: Anti-atherosclerosis activity in Sprague-Dawley rat thoracic aortic vascular ring endothelial injury model assessed as decrease in CRP level by ELISA; format: functional, tissue-based

Compound	Activity [1]	Activity [2]	inhibition [3]	Activity [4]	Activity [5]	Activity [6]	Activity [7]	Activity [8]	Activity [9]	Activity [10]	Activity [11]	Activity [12]	Activity [13]	Activity [14]	Activity [15]
O=C1C[C@@H](c2ccc(O)c(O)c2)Oc2cc(O)cc(O)c21	Active	inactive	Active	Active	inactive	Active	Active	Active	Active	Active	inactive				
C[C@@H]1O[C@@H](O[C@H]2[C@H](Oc3cc(O)c4c(c3)O[C@H](c3ccc(O)cc3)CC4=O)O[C@H](CO)[C@@H](O)[C@@H]2O)[C@H](O)[C@H](O)[C@H]1O	inactive	inactive	Active	Active	inactive	Active	Active	Active		Active	inactive				
O=c1c(O[C@@H]2O[C@H](CO)[C@@H](O)[C@H](O)[C@H]2O)c(-c2ccc(O)cc2)oc2cc(O)cc(O)c12	Active	inactive	Active		Active	Active	Active	Active	Active	Active	inactive	Active			
O=c1cc(-c2ccc(O)c(O)c2)oc2cc(O)cc(O)c12	inactive	inactive	Active		inactive	Active		Active	Active	Active	inactive		Active		
C[C@@H]1O[C@@H](OC[C@H]2O[C@@H](Oc3cc(O)c4c(c3)O[C@H](c3ccc(O)cc3)CC4=O)[C@H](O)[C@@H](O)[C@@H]2O)[C@H](O)[C@H](O)[C@H]1O	inactive	inactive	Active	Active	inactive	Active		Active		Active	inactive				
O=c1c(O)c(-c2ccc(O)cc2)oc2cc(O)cc(O)c12	Active	inactive	Active		inactive	Active	Active	Active	Active	Active	inactive		Active	Active	Dose-dependent effect
O=c1cc(-c2ccc(O)c(O)c2)oc2cc(O[C@@H]3O[C@H](CO)[C@@H](O)[C@H](O)[C@H]3O)cc(O)c12	Active	inactive	Active		inactive	Active		Active	Active	Active	inactive				
